≈ marks a conversion by molar mass, not a printed value.
How the values were obtained:
[1] = target: Glycogen synthase kinase-3 alpha (Homo sapiens, UniProt P49840); test: Inhibition of GSK3alpha (unknown origin) using GS-l peptide as substrate and [gamma-33P]-ATP after 10 min
[2] = target: Glycogen synthase kinase-3 beta (Homo sapiens, UniProt P49841); test: Inhibition of GSK3beta (unknown origin) using GS-l peptide as substrate and [gamma-33P]-ATP after 10 min
[3] = target: Dual specificity tyrosine-phosphorylation-regulated kinase 1A (Homo sapiens, UniProt Q13627); test: Inhibition of DYRK1A (unknown origin) using [gamma-33P]-ATP after 10 min
[4] = target: Cyclin-dependent kinase 5/CDK5 activator 1 (Homo sapiens, UniProt Q00535); test: Inhibition of CDK5/p25 (unknown origin) using histone H1 as substrate and [gamma-33P]-ATP after 10 min; assay type: protein-complex assay
Chain of Cyclin-dependent kinase 5/CDK5 activator 1 (Q00535 whole entry): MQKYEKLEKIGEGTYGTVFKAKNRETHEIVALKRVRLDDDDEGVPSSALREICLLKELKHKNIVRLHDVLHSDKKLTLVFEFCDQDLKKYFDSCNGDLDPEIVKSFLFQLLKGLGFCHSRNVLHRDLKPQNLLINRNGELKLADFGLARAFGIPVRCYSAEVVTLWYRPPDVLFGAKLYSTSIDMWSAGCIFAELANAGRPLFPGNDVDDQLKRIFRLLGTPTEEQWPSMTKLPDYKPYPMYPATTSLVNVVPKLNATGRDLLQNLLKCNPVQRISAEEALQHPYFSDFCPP
Chain of Cyclin-dependent kinase 5/CDK5 activator 1 (Q15078 whole entry, further chain): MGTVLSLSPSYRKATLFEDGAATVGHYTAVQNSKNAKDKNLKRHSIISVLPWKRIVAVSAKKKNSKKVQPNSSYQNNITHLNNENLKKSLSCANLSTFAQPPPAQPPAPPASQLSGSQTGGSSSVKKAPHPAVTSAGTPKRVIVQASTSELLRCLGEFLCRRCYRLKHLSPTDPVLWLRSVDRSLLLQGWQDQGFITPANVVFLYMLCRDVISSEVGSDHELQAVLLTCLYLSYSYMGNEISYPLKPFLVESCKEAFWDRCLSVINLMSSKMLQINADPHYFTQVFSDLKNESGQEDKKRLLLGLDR

[5] = target: T1, Cyclin-dependent kinase 1/cyclin B1 (Homo sapiens, UniProt P06493); test: Inhibition of CDK1/cyclin B (unknown origin) using histone H1 as substrate and [gamma-33P]-ATP after 10 min; assay type: protein-complex assay
T1 sequence (P06493 whole entry, the tested form may be a part): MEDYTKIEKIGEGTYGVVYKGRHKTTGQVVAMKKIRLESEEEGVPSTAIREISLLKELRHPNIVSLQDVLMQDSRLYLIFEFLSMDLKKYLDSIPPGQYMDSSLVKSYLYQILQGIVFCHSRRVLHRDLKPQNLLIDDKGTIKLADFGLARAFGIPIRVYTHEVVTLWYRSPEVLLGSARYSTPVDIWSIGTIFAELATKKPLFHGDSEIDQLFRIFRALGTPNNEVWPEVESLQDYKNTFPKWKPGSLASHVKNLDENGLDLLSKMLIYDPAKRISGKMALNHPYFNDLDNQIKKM
T1 sequence (P14635 whole entry, further chain, the tested form may be a part): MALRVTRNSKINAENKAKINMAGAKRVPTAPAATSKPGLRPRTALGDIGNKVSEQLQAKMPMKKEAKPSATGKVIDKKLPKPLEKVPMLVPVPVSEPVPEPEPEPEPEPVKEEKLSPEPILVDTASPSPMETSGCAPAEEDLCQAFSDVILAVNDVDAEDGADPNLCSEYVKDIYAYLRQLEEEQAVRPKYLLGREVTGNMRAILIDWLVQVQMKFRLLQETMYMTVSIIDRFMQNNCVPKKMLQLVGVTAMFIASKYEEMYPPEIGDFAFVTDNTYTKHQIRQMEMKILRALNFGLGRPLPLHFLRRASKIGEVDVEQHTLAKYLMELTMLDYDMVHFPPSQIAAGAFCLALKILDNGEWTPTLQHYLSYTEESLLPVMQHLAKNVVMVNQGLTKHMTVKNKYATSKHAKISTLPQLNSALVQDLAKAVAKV

Escherichia coli [6] = test: Antimicrobial activity against Escherichia coli NCTC 10418 by agar cup diffusion technique; assay type: functional
Pseudomonas aeruginosa [7] = test: Antimicrobial activity against Pseudomonas aeruginosa ATCC 9027 by agar cup diffusion technique; assay type: functional
Candida albicans [8] = test: Antimicrobial activity against Candida albicans ATCC 10231 by agar cup diffusion technique; assay type: functional
Candida albicans [9] = test: Antimicrobial activity against Candida albicans ATCC 10231 by two-fold serial dilution technique; assay type: functional
Staphylococcus aureus [10] = test: Antimicrobial activity against Staphylococcus aureus ATCC 6538 by agar cup diffusion technique; assay type: functional
Staphylococcus aureus [11] = test: Antimicrobial activity against Staphylococcus aureus ATCC 6538 by two-fold serial dilution technique; assay type: functional
Pseudomonas aeruginosa [12] = test: Antimicrobial activity against Pseudomonas aeruginosa ATCC 9027 by two-fold serial dilution technique; assay type: functional
[13] = target: T1, Cyclin-dependent kinase 1/cyclin B1; test: Inhibition of CDK1/cyclin B (unknown origin); assay type: protein-complex assay
Escherichia coli [14] = test: Antimicrobial activity against Escherichia coli NCTC 10418 by two-fold serial dilution technique; assay type: functional

Chain of Glycogen synthase kinase-3 alpha (P49840 whole entry): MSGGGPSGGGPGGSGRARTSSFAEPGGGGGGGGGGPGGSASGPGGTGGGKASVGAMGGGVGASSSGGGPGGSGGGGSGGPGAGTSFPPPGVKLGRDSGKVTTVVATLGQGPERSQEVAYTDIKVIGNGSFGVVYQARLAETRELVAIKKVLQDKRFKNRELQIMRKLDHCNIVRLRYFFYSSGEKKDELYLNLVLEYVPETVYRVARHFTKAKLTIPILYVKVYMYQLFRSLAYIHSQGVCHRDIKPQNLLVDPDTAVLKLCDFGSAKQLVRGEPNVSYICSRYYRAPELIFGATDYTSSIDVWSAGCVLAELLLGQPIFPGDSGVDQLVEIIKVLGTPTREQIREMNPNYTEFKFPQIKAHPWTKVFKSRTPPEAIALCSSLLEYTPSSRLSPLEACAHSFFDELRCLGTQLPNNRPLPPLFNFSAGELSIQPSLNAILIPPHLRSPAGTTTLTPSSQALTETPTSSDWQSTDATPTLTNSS
Chain of Glycogen synthase kinase-3 beta (P49841 whole entry): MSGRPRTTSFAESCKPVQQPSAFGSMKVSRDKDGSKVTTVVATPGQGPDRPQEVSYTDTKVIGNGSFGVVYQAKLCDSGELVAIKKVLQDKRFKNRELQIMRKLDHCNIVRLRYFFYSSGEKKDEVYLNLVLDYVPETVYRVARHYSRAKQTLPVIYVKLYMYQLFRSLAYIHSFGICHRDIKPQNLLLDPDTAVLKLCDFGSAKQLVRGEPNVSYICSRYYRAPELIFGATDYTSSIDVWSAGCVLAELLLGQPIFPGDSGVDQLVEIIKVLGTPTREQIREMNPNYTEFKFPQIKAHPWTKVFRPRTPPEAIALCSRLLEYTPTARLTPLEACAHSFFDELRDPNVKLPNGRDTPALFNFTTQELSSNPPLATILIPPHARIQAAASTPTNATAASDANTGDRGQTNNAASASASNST

SMILES | IC50 [1] | IC50 [2] | IC50 [3] | IC50 [4] | IC50 [5] | MIC (Candida albicans [9]) | MIC (Staphylococcus aureus [11]) | MIC (Pseudomonas aeruginosa [12]) | IC50 [13] | diameter of the inhibition zone (DIZ) (Escherichia coli [6]) | diameter of the inhibition zone (DIZ) (Pseudomonas aeruginosa [7]) | diameter of the inhibition zone (DIZ) (Candida albicans [8]) | MBC (Candida albicans [9]) | diameter of the inhibition zone (DIZ) (Staphylococcus aureus [10]) | MBC (Staphylococcus aureus [11]) | MBC (Pseudomonas aeruginosa [12]) | MBC (Escherichia coli [14])
O=C1NN=C(c2ccc(Br)cc2)/C(=N/Nc2ccccc2)C1=O | > 10 µM | > 10 µM | > 10 µM | > 10 µM | > 10 µM |  | 250 µg/mL (≈ 674 µM) |  |  | 16 mm | 17.5 mm | 16.5 mm |  | 20 mm | 250 µg/mL (≈ 674 µM) |  | 
CCOC(=O)c1[nH]nc(-c2ccc(F)cc2)c1/N=N/c1ccccc1 | > 10 µM | > 10 µM | > 10 µM | > 10 µM | > 10 µM |  | 250 µg/mL (≈ 739 µM) |  |  | 16 mm | 17 mm | 16 mm |  | 20 mm | 250 µg/mL (≈ 739 µM) |  | 
CCOC(=O)c1[nH]nc(-c2ccc(Cl)cc2)c1/N=N/c1ccccc1 | > 10 µM | > 10 µM | > 10 µM | > 10 µM | > 10 µM |  | 125 µg/mL (≈ 352 µM) |  |  | 16.5 mm | 16 mm | 16 mm |  | 21 mm | 250 µg/mL (≈ 705 µM) |  | 
CCOC(=O)c1[nH]nc(-c2ccc(Cl)cc2)c1N | > 10 µM | > 10 µM | > 10 µM | > 10 µM | > 10 µM |  |  | 125 µg/mL (≈ 470 µM) |  | 17 mm | 23 mm | 17 mm |  | 10 mm |  | > 500 µg/mL | 
CCOC(=O)c1[nH]nc(-c2ccc(Br)cc2)c1N | > 10 µM | > 10 µM | > 10 µM | > 10 µM | > 10 µM |  |  |  |  | 15.5 mm | 17 mm | 16 mm |  | 14 mm |  |  | 
O=c1[nH]cnc2c(-c3ccccc3)n[nH]c12 | > 10 µM | > 10 µM | > 10 µM | > 10 µM | > 10 µM |  |  |  |  | 16 mm | 17.5 mm | 17 mm |  | 11 mm |  |  | 
COc1ccc(CNc2ncnc3c(C(C)C)n[nH]c23)cc1O |  |  |  |  |  |  |  |  | 1.1 µM |  |  |  |  |  |  |  | 
CC1(C)S[C@@H]2[C@H](NC(=O)[C@H](N)c3ccccc3)C(=O)N2[C@H]1C(=O)O [AMPICILLIN] |  |  |  |  |  |  | 3.9 µg/mL (≈ 11.2 µM) | 250 µg/mL (≈ 715 µM) |  | 26 mm | 18 mm |  |  | 40 mm | 15.6 µg/mL (≈ 44.7 µM) | 500 µg/mL (≈ 1430 µM) | 31.2 µg/mL (≈ 89.4 µM)
Clc1ccccc1C(c1ccccc1)(c1ccccc1)n1ccnc1 [CLOTRIMAZOLE] |  |  |  |  |  | 7.81 µg/mL (≈ 22.6 µM) |  |  |  |  |  | 28 mm | 15.6 µg/mL (≈ 45.3 µM) |  |  |  | 

Further lines, with some results ahead:

IC50 [1] | IC50 [2] | IC50 [3] | IC50 [4] | IC50 [5] | MIC (Candida albicans [9]) | MIC (Staphylococcus aureus [11]) | MIC (Pseudomonas aeruginosa [12]) | IC50 [13] | SMILES | diameter of the inhibition zone (DIZ) (Escherichia coli [6]) | diameter of the inhibition zone (DIZ) (Pseudomonas aeruginosa [7]) | diameter of the inhibition zone (DIZ) (Candida albicans [8]) | MBC (Candida albicans [9]) | diameter of the inhibition zone (DIZ) (Staphylococcus aureus [10]) | MBC (Staphylococcus aureus [11]) | MBC (Pseudomonas aeruginosa [12]) | MBC (Escherichia coli [14])
> 10 µM | > 10 µM | > 10 µM | > 10 µM | > 10 µM | 250 µg/mL (≈ 859 µM) |  |  |  | O=c1[nH]cnc2c(-c3ccc(Br)cc3)n[nH]c12 | 15.5 mm | 17.5 mm | 28 mm | 250 µg/mL (≈ 859 µM) |  |  |  | 
> 10 µM | > 10 µM | > 10 µM | > 10 µM | > 10 µM |  |  |  |  | CCOc1ccc(S(=O)(=O)N2CCOCC2)cc1-c1nc2ncccc2c(=O)[nH]1 | 17 mm | 15 mm | 17 mm |  | 10 mm |  |  | 
> 10 µM | > 10 µM | > 10 µM | > 10 µM | > 10 µM | 62.5 µg/mL (≈ 127 µM) |  |  |  | CCOc1ccc(S(=O)(=O)N2CCN(c3ccccc3)CC2)cc1-c1nc2ncccc2c(=O)[nH]1 | 16.5 mm | 15.5 mm | 25 mm | 250 µg/mL (≈ 509 µM) | 12 mm |  |  | 
> 10 µM | > 10 µM | > 10 µM | > 10 µM | > 10 µM |  |  |  |  | CCOC(=O)C(=O)/C(=N\Nc1ccccc1)C(=O)c1ccccc1 | 16 mm | 16 mm | 16 mm |  |  |  |  | 
> 10 µM | > 10 µM | > 10 µM | > 10 µM | > 10 µM |  |  |  |  | CCOC(=O)C(=O)/C(=N\Nc1ccccc1)C(=O)c1ccc(Cl)cc1 | 16 mm | 17 mm | 16 mm |  |  |  |  | 
> 10 µM | > 10 µM | > 10 µM | > 10 µM | > 10 µM |  | 62.5 µg/mL (≈ 214 µM) | 125 µg/mL (≈ 428 µM) |  | O=C1NN=C(c2ccccc2)/C(=N/Nc2ccccc2)C1=O | 17 mm | 24 mm | 17.5 mm |  | 30 mm | 62.5 µg/mL (≈ 214 µM) | 125 µg/mL (≈ 428 µM) | 
